Source: patent US12521399B2, “Compound as voltage-gated sodium channel inhibitor” (Guangzhou Fermion Technology Co., Ltd., priority 2022, dated 2026)
pIC50: −log10 of the molar value.

Tests used:
[1] = biological target: T1, human Nav1.8 ion channel stably expressed by CHO cells (Homo sapiens, UniProt Q9Y5Y9); experiment: Blocking activity on sodium ion channel 1.8 (Nav1.8), manual whole-cell patch clamp; assay type: cell-based; settings: Nav1.8 peak sodium current; for inhibition at 0.01 µM: 10 nM compound, read-out: Inhibition rate (%) @ 10 nM; for inhibition at 0.1 µM: 100 nM compound, read-out: Inhibition rate (%) @ 100 nM
T1 construct: expressed in transfected cells
T1 sequence (Q9Y5Y9 whole entry): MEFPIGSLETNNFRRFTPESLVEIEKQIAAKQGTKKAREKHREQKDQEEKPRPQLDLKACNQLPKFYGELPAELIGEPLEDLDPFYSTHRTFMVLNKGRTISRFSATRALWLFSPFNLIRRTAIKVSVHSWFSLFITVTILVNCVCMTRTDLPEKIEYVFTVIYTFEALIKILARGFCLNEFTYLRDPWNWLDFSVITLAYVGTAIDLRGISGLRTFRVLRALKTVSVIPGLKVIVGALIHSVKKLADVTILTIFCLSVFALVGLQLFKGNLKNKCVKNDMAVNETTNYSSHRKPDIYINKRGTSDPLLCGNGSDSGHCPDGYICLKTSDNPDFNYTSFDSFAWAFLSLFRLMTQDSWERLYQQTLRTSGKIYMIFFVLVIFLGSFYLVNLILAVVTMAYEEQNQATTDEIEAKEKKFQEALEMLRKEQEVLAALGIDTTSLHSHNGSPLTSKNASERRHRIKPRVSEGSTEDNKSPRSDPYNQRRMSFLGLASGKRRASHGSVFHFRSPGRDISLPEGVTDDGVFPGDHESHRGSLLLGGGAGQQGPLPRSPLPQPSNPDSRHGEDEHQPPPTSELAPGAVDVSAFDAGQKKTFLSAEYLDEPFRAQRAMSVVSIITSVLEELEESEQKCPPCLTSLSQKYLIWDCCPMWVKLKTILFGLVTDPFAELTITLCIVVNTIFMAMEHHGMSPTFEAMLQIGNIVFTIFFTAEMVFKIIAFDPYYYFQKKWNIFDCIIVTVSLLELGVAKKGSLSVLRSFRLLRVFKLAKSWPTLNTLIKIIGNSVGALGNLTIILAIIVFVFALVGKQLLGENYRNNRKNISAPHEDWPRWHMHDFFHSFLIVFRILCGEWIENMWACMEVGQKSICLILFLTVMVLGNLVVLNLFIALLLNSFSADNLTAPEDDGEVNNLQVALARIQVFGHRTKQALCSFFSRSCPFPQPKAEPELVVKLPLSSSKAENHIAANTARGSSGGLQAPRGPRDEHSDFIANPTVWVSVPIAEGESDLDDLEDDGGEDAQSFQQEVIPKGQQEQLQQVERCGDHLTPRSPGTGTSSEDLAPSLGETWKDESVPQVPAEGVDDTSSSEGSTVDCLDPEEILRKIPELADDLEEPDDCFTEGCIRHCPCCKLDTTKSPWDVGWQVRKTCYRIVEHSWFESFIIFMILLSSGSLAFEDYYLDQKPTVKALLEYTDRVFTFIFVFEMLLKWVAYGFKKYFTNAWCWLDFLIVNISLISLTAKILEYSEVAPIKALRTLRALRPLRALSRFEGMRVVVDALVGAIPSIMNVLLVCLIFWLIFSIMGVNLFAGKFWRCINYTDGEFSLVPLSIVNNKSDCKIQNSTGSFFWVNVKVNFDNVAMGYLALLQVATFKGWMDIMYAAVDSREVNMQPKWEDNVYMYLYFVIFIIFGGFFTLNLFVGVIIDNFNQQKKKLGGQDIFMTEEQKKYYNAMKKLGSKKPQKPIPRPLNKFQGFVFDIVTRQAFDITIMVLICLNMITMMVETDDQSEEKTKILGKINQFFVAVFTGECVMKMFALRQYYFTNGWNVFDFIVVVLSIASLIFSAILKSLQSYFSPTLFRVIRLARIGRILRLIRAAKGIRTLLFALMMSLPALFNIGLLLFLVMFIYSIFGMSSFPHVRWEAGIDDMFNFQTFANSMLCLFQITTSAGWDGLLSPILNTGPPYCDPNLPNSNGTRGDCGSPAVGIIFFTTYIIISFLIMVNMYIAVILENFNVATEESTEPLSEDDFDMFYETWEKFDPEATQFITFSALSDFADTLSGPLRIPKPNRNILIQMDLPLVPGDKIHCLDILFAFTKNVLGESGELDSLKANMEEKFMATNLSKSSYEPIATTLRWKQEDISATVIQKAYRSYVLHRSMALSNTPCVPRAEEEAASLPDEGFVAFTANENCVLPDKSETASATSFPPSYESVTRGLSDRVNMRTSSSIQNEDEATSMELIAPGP
Protocol: Test Example A: Blocking activity of the compound of the present invention on sodium ion channel 1.8 (Nav1.8)
Experimental objective: to determine the rate of inhibition of the compound on the human Nav1.8 ion channel stably expressed by CHO cells
The compound was dissolved using DMSO to prepare a stock solution. The stock solution was diluted with an extracellular fluid (140 mM NaCl, 3.5 mM KCl, 1 mM MgCl2, 2 mM CaCl2), 10 mM D-glucose, 10 mM HEPES, 1.25 mM NaH2PO4 2H2O, pH=7.4 (NaOH)) to particular concentrations to be used in manual patch clamp testing.
A capillary glass tube was stretched to form a recording electrode using a microelectrode puller. A microelectrode manipulator was operated under an inverted microscope to contact the recording electrode to the cells, and negative suction pressure was applied to form a GQ seal. Once the GQ seal was formed, rapid capacitance compensation was performed, and then the negative pressure was continued to break the cell membrane, forming a whole cell recording mode. Slow capacitance was compensated for, and the film capacitance and series resistance were recorded. No leakage compensation was applied. Once the Nav1.8 current recorded in the whole cell was stabilized, administration of the compound was started. The compound was allowed to act at the first concentration for 5 min (or until the electric current stabilized), and then the second concentration was tested. For each test compound, two concentrations were tested.
The voltage stimulation protocol for whole-cell patch clamp recording of Nav1.8 sodium current was as follows: once the whole cell seal was formed, the cellular voltage was clamped at −120 mV for 30 ms. The clamping voltage was depolarized to 0 mV for 50 ms, and then the voltage was restored to −50 mV (for the specific voltage, reference was made to the half inactivation voltage in IV testing) for 8 s. […] Data acquisition was repeated every 20 s. The effect of the compound on the peak value of the sodium current was observed. The experimental data was collected by an EPC-10 amplifier (HEKA) and was stored in PatchMaster (HEKA) software.

[2] = Pharmacokinetic evaluation by intravenous injection or gavage in rats; settings: Sprague-Dawley (SD), rat, in vivo
Protocol: Test Example B: Quantitative pharmacokinetic evaluation of the compound of the present invention administered by intravenous injection or gavage in rats.
The present inventors conducted pharmacokinetic evaluation of the compound of the present invention in rats.
The compound of the present invention was administered to the test animals as a solution of 5% DMSO+5% tween 80+90% physiological saline solution. The animals were fasted for 12 hours prior to the administration, but had free access to water. For the intravenous injection administration group, the administration dose was 1 mg/kg; for gavage administration, the administration dose was 10 mg/kg. Following administration, blood was intravenously collected from the animals (approximately 0.3 mL of blood) at the following time points: 0.083 h, 0.25 h, 0.5 h, 1.0 h, 2.0 h, 4.0 h, 8.0 h, and 24 h. The blood collection tubes previously had EDTA-K2 added thereto as an anticoagulant. Each blood sample was centrifuged at 6800 g at a low temperature for 6 minutes, and plasma was collected and stored at −80° C.
Sample preparation for LC-MS/MS assay: 20 μL of the plasma sample was subjected to protein precipitation using 400 μL of methanol containing 100 ng/mL of IS (tolbutamide). The mixture was vortexed for 1 minute and then centrifuged at 18000 g for 7 minutes. 400 μL of the supernatant was transferred to a 96-well plate. 2 μL of the supernatant were subjected to LC-MS/MS analysis.

[3] = biological target: Nav1.3 (Homo sapiens, UniProt Q9NY46); settings: read-out: TTX IC50 (nm); cited from earlier work
Nav1.3, sequence (Q9NY46 whole entry, looked up): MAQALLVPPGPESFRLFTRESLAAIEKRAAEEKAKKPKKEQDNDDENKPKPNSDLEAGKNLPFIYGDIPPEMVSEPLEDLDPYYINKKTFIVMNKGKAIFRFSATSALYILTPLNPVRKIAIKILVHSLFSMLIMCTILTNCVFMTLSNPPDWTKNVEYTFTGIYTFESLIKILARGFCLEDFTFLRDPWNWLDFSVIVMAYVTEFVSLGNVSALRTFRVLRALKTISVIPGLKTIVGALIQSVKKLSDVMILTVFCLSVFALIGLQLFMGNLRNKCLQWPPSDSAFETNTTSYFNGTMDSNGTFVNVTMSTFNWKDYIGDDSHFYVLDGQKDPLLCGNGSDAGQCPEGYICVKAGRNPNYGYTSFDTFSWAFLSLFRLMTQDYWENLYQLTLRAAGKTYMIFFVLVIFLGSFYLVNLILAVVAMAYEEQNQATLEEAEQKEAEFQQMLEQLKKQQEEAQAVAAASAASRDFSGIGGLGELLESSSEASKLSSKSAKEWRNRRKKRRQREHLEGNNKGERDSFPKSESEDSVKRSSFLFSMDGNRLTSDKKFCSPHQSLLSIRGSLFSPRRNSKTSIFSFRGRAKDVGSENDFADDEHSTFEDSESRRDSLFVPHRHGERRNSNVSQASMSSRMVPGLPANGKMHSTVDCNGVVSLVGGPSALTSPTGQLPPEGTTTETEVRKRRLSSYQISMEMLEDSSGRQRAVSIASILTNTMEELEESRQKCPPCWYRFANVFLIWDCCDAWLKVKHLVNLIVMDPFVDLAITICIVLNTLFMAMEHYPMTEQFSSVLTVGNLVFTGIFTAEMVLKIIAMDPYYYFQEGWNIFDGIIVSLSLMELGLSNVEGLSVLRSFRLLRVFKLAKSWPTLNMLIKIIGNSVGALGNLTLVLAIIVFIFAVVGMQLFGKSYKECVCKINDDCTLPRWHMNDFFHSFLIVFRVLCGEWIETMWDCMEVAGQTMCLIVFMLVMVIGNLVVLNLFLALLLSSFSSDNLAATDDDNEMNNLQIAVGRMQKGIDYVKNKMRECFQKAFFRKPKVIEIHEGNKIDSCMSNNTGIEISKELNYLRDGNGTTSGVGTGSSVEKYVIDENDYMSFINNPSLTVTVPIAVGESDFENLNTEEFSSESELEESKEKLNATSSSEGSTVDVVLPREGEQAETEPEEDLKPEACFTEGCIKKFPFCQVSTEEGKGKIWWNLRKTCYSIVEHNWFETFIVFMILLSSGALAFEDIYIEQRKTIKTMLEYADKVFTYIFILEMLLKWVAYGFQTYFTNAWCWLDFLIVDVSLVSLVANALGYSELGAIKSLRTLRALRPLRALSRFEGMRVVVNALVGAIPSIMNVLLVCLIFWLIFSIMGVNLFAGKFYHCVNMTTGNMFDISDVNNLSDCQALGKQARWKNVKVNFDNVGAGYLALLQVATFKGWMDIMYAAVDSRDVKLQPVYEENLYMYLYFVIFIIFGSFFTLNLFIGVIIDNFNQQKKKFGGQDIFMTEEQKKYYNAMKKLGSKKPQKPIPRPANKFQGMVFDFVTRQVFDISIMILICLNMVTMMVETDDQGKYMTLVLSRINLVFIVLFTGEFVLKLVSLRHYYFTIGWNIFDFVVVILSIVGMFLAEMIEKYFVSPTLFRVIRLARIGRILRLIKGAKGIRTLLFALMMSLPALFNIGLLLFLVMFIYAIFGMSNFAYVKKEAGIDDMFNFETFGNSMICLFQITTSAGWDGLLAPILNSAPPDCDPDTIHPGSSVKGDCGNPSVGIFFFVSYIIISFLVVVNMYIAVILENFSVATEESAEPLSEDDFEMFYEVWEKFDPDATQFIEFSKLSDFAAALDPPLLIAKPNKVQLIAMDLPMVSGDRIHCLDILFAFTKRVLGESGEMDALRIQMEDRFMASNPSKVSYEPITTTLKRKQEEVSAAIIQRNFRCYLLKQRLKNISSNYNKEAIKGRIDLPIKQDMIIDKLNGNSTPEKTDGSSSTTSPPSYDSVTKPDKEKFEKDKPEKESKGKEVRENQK

[4] = biological target: Nav1.8 (Homo sapiens, UniProt Q9Y5Y9); settings: read-out: TTX IC50 (nm); cited from earlier work
Nav1.8, sequence (Q9Y5Y9 whole entry, looked up): as the sequence (Q9Y5Y9 whole entry) above

| Compound | inhibition at 0.01 µM [1] | inhibition at 0.1 µM [1] | other results |
| --- | --- | --- | --- |
| CNCCNS(=O)(=O)c1cc(NC(=O)c2cc(Cl)c(C(F)(F)F)cc2Oc2ccc(F)cc2C)ccn1 [Compound 1, 5-chloro-2-(4-fluoro-2-methylphenoxy)-N-(2-(N-(2-(methylamino)ethyl)sulfamoyl)pyridin-4-yl)-4-(trifluoromethyl)benzamide] | 59.8% | 91.3% | – |
| Cc1cc(F)ccc1Oc1cc(C(F)(F)F)c(Cl)cc1C(=O)Nc1ccnc(S(=O)(=O)N[C@@H]2CCNC2)c1 [Compound 2, (R)-5-chloro-2-(4-fluoro-2-methylphenoxy)-N-(2-(N-(pyrrolidin-3-yl)sulfamoyl)pyridin-4-yl)-4-(trifluoromethyl)benzamide] | 84.5% | 100% | – |
| Cc1cc(F)ccc1Oc1cc(C(F)(F)F)c(Cl)cc1C(=O)Nc1ccnc(S(=O)(=O)N[C@H]2CCNC2)c1 [Compound 3, (S)-5-chloro-2-(4-fluoro-2-methylphenoxy)-N-(2-(N-(pyrrolidin-3-yl)sulfamoyl)pyridin-4-yl)-4-(trifluoromethyl)benzamide] | 92% | 98.4% | – |
| Cc1cc(F)ccc1Oc1cc(C(F)(F)F)c(Cl)cc1C(=O)Nc1ccnc(S(=O)(=O)NC2CCNCC2)c1 [Compound 4, 5-chloro-2-(4-fluoro-2-methylphenoxy)-N-(2-(N-(piperidin-4-yl)sulfamoyl)pyridin-4-yl)-4-(trifluoromethyl)benzamide] | 84.9% | 96.1% | – |
| Cc1cc(F)ccc1Oc1cc(C(F)(F)F)c(Cl)cc1C(=O)Nc1ccnc(S(=O)(=O)NCC2CCNCC2)c1 [Compound 5, 5-chloro-2-(4-fluoro-2-methylphenoxy)-N-(2-(N-(piperidin-4-ylmethyl)sulfamoyl)pyridin-4-yl)-4-(trifluoromethyl)benzamide] | 78.5% | 96.8% | – |
| Cc1cc(F)ccc1Oc1cc(C(F)(F)F)c(Cl)cc1C(=O)Nc1ccnc(S(=O)(=O)NC[C@@H]2CCNC2)c1 [Compound 6, (R)-5-chloro-2-(4-fluoro-2-methylphenoxy)-N-(2-(N-(pyrrolidin-3-ylmethyl)sulfamoyl)pyridin-4-yl)-4-(trifluoromethyl)benzamide] | 71.3% | 98.1% | – |
| Cc1cc(F)ccc1Oc1cc(C(F)(F)F)c(Cl)cc1C(=O)Nc1ccnc(S(=O)(=O)NC[C@H]2CCNC2)c1 [Compound 7, (S)-5-chloro-2-(4-fluoro-2-methylphenoxy)-N-(2-(N-(pyrrolidin-3-ylmethyl)sulfamoyl)pyridin-4-yl)-4-(trifluoromethyl)benzamide] | 91.5% | 97.1% | – |
| CCN1CC[C@H](NS(=O)(=O)c2cc(NC(=O)c3cc(Cl)c(C(F)(F)F)cc3Oc3ccc(F)cc3C)ccn2)C1 [Compound 8] | 68.6% | 93% | – |
| CCCN1CC[C@H](NS(=O)(=O)c2cc(NC(=O)c3cc(Cl)c(C(F)(F)F)cc3Oc3ccc(F)cc3C)ccn2)C1 [Compound 9, (S)-5-chloro-2-(4-fluoro-2-methylphenoxy)-N-(2-(N-(1-propylpyrrolidin-3-yl)sulfonamido)pyridin-4-yl)-4-(trifluoromethyl)benzamide] | 60.1% | 95.2% | – |
| Cc1cc(F)ccc1Oc1cc(C(F)(F)F)c(Cl)cc1C(=O)Nc1ccnc(S(=O)(=O)N[C@H]2CCN(CCF)C2)c1 [Compound 10, (S)-5-chloro-2-(4-fluoro-2-methylphenoxy)-N-(2-(N-(1-(2-fluoroethyl)pyrrolidin-3-yl)sulfamoyl)pyridin-4-yl)-4-(trifluoromethyl)benzamide] | 46.2% | 83.4% | – |
| CCN1CC[C@@H](NS(=O)(=O)c2cc(NC(=O)c3cc(Cl)c(C(F)(F)F)cc3Oc3ccc(F)cc3C)ccn2)C1 [Compound 11] | 80.5% | 97.8% | – |
| CCCN1CC[C@@H](NS(=O)(=O)c2cc(NC(=O)c3cc(Cl)c(C(F)(F)F)cc3Oc3ccc(F)cc3C)ccn2)C1 [Compound 12, (R)-5-chloro-2-(4-fluoro-2-methylphenoxy)-N-(2-(N-(1-propylpyrrolidin-3-yl)sulfamoyl)pyridin-4-yl)-4-(trifluoromethyl)benzamide] | 71.5% | 97.9% | – |
| Cc1cc(F)ccc1Oc1cc(C(F)(F)F)c(Cl)cc1C(=O)Nc1ccnc(S(C)(=N)=O)c1 (stereo not drawn) [Compound 13, 5-chloro-2-(4-fluoro-2-methylphenoxy)-N-(2-(S-methyliminosulfonyl)pyridin-4-yl)-4-(trifluoromethyl)benzamide] | 52.4% | 97.2% | AUC(0-t) ([2]; iv, 1 mg/kg): 2240 ng·h/mL; Cmax ([2]; iv, 1 mg/kg): 496 ng/mL; Tmax ([2]; iv, 1 mg/kg): 0.08 h; Vd ([2]; iv, 1 mg/kg): 2.48 L/kg; clearance ([2]; iv, 1 mg/kg): 7.52 mL/min/kg; half-life ([2]; iv, 1 mg/kg): 3.88 h; AUC(0-t) ([2]; po, 10 mg/kg): 18600 ng·h/mL; Cmax ([2]; po, 10 mg/kg): 1840 ng/mL; Tmax ([2]; po, 10 mg/kg): 2.67 h; bioavailability ([2]; po, 10 mg/kg): 83.2%; half-life ([2]; po, 10 mg/kg): 3.85 h |
| [2H]C([2H])([2H])Oc1cc(OC(F)(F)F)ccc1Oc1cc(C(F)(F)F)c(Cl)cc1C(=O)Nc1ccnc(S(C)(=N)=O)c1 (stereo not drawn) [Compound 15, 5-chloro-2-(2-(methoxy-d3)-4-(trifluoromethoxy)phenoxy)-N-(2-(S-methyliminosulfonyl)pyridin-4-yl)-4-(trifluoromethyl)benzamide] | 86.3% | 99.3% | – |
| CS(=N)(=O)c1cc(NC(=O)c2cc(Cl)c(C(F)(F)F)cc2N2CCCC(F)(F)CC2)ccn1 (stereo not drawn) [Compound 17, 5-chloro-2-(4,4-difluoroazepan-1-yl)-N-(2-(S-methyliminosulfonyl)pyridin-4-yl)-4-(trifluoromethyl)benzamide] | 71.9% | 96.5% | – |
| Cc1cc(F)ccc1Oc1cc(C(F)(F)F)c(Cl)cc1C(=O)Nc1cnnc(S(C)(=N)=O)c1 (stereo not drawn) [Compound 20, 5-chloro-2-(4-fluoro-2-methylphenoxy)-N-(6-(S-methyliminosulfonyl) 76 yridazine-4-yl)-4-(trifluoromethyl)benzamide] | 46.8% | 86.5% | – |
| [2H]C([2H])([2H])Oc1cc(F)ccc1Oc1cc(C(F)(F)F)c(Cl)cc1C(=O)Nc1ccc(F)c(S(C)(=N)=O)c1 (stereo not drawn) [Compound 24, 5-chloro-2-(4-fluoro-2-(methoxy-d3)phenoxy)-N-(4-fluoro-3-(S-methyliminosulfonyl)phenyl)-4-(trifluoromethyl)benzamide] | 83.9% | 99% | – |
| [2H]C([2H])([2H])Oc1cc(OC(F)(F)F)ccc1Oc1cc(C(F)(F)F)c(Cl)cc1C(=O)Nc1ccc(F)c(S(C)(=N)=O)c1 (stereo not drawn) [Compound 25, 5-chloro-N-(4-fluoro-3-(S-methyliminosulfonyl)phenyl)-2-(2-(methoxy-d3)-4-(trifluoromethoxy)phenoxy)-4-(trifluoromethyl)benzamide] | 82% | 95.5% | – |
| CS(=N)(=O)c1cc(NC(=O)c2cc(Cl)c(C(F)(F)F)cc2N2CCCC(F)(F)CC2)ccc1F (stereo not drawn) [Compound 27, 5-chloro-2-(4,4-difluoroazepan-1-yl)-N-(4-fluoro-3-(S-methyliminosulfonyl)phenyl)-4-(trifluoromethyl)benzamide] | 75.1% | 96% | – |
| NC1=N[C@H](O)[C@H]2[C@H]3O[C@]4(O)O[C@@H]([C@@H](O)[C@@]2(N1)[C@@H]4O)[C@]3(O)CO [TTX, tetrodotoxin] | – | – | pIC50 [3]: 8.40; pIC50 [4]: 4.51 |
